Values after ≈ are worked out from the molar mass of the structure shown. Values joined by “and” are separate entries in the source; they are usually repeats but may differ in a detail not shown here. Equal entries are not always repeated. Where two headings read alike, the source gives them in different places.
Columns and labels:
[1] = system: P. aeruginosa PAO1; test: MIC by two-fold dilution, wild type PAO1; format: cell-based, Pseudomonas aeruginosa; details: for MIC: Pseudomonas aeruginosa
Method: (§1) In all experiments, P. aeruginosa PAO1-Pore (PAO1 attTn7::PLAC-fhuA) and PΔ3-Pore (ΔmexAB ΔmexCD ΔmexXY attTn7::PLAC-fhuA) strains were used[29]. Strains were routinely grown in Luria–Bertani (LB) or MOPS-M9 medium at 37 °C with aeration. MICs shown in Tables 1 and 2 were determined by a two-fold dilution method in LB broth and MOPS-M9 medium, respectively, following the previously described protocol.

[2] = system: P. aeruginosa PAO1-Pore; test: MIC by two-fold dilution, hyperporinated PAO1-Pore; format: cell-based, Pseudomonas aeruginosa; details: for MIC: Pseudomonas aeruginosa; for MICs: PAO1-Pore, LB broth, Table S2
Method: as §1

[3] = system: P. aeruginosa PΔ3; test: microbe, parasite or virus in culture; format: cell-based, Pseudomonas aeruginosa; details: Pseudomonas aeruginosa
Method: as §1

[4] = system: P. aeruginosa PΔ3-Pore; test: MIC by two-fold dilution, barrierless PΔ3-Pore; format: cell-based, Pseudomonas aeruginosa; details: for MIC: Pseudomonas aeruginosa; for MICs: P∆3-Pore, Table S2
Method: as §1

[5] = system: four strains of P. aeruginosa; format: cell-based, Pseudomonas aeruginosa
Method: Cells were sub-cultured (50–100 mL) 1:100 in fresh LB broth in two flasks per strain. At OD600 0.3 (~ 1.5 to 2 h of incubation), the expression of the pore was induced with 0.1 mM IPTG (final concentration) in one of the flasks and cells were grown for additional 1 to 1.5 h (OD600 1- 1.5). Cells were collected by centrifugation at room temperature (RT) and washed in PMG Buffer (50 mM KPi, pH 7.0, 1 mM MgSO4, 0.4% glucose, prepared fresh) and concentrated 20x (i.e., 100 mL culture resuspended in 5 ml of PMG Buffer with final OD600 ~ 20–30). Assays were performed in 96-well 1.0 µm Glass Fiber Type B filters plates (Millipore). […]
[…] Filter plates were dried, removed from the vacuum manifold and left in the hood overnight to dry completely.

[6] = system: P. aeruginosa PAO1 cells; test: LC–MS quantification of intracellular accumulation, PAO1; details: 10-80 µM; for Concentration slopes of accumulation, PAO1_1 min: 1 min incubation; for Concentration slopes of accumulation, PAO1_40 min: 40 min incubation;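 as to all read-outs here: slope of accumulation versus external concentration fitted as a line through zero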
In short: (§2)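 Cells grown in MOPS-M9 (pH 7.2) with 1% glycerol, Pore strains induced with 0.1 mM IPTG, concentrated 10X in spent medium and exposed to 10, 20, 40, 80 µM compound for 1 and 40 min at RT. Filter-collected cells extracted with methanol; compound quantified by positive-ion LC–MS against calibration in PAO1 cell extract, no-cell filter controls.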

[7] = system: P. aeruginosa PAO1-Pore cells; test: LC–MS quantification of intracellular accumulation, PAO1-Pore; details: 10-80 µM; for Concentration slopes of accumulation, PAO1-Pore_1 min: 1 min incubation; for Concentration slopes of accumulation, PAO1-Pore_40 min: 40 min incubation;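 as to all read-outs here: slope of accumulation versus external concentration fitted as a line through zero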
In short: as §2

[8] = system: P. aeruginosa PΔ3 cells; details: 10-80 µM; for Concentration slopes of accumulation, PΔ3_1 min: 1 min incubation; for Concentration slopes of accumulation, PΔ3_40 min: 40 min incubation;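 as to all read-outs here: slope of accumulation versus external concentration fitted as a line through zero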
In short: as §2

[9] = system: P. aeruginosa PΔ3-Pore cells; test: LC–MS quantification of intracellular accumulation, PΔ3-Pore; details: 10-80 µM; for Concentration slopes of accumulation, PΔ3-Pore_1 min: 1 min incubation; for Concentration slopes of accumulation, PΔ3-Pore_40min: 40 min incubation;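 as to all read-outs here: slope of accumulation versus external concentration fitted as a line through zero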
In short: as §2

[10] = system: P. aeruginosa; details: sheet "Good" permeators; all listed compounds are good permeators
Method: The measured levels of compound accumulation were analyzed using machine learning to determine which features of the compounds are most important for enabling their cellular accumulation and to determine their optimal values. […] To accentuate the permeability aspect, the accumulation slopes in efflux-deficient and hyperporinated strains were normalized to those in the parental PAO1 strain.
To help visualize the data, we performed a principal component (PC) decomposition of the data.

[11] = PAO1, LB broth, Table 1, read-out: MIC
[12] = radioactively labeled compound, four strains, 20 min
[13] = PAO1, MOPS-M9 medium, read-out: MICs
[14] = read-out: MICs, P∆3-Pore, MOPS-M9 medium

Row | SMILES | MIC [1, 11] [µM] | MIC ([2]; PAO1) [µM] | MIC [3] [µM] | MIC ([4]; PΔ3-Pore, LB broth, Table 1) | effect of efflux inactivation and hyperporination on accumulation [5, 12] | MIC [1, 13] | MICs [2] | MIC ([2]; PAO1, read-out: MICs) | MIC ([3]; read-out: MICs) | MIC [4, 14] | MICs ([4]; LB broth) | Concentration slopes of accumulation, PAO1_1 min [6] | Concentration slopes of accumulation, PAO1_40 min [6] | Concentration slopes of accumulation, PAO1-Pore_1 min [7] | Concentration slopes of accumulation, PAO1-Pore_40 min [7] | Concentration slopes of accumulation, PΔ3_1 min [8] | Concentration slopes of accumulation, PΔ3_40 min [8] | Concentration slopes of accumulation, PΔ3-Pore_1 min [9] | Concentration slopes of accumulation, PΔ3-Pore_40min [9] | Cluster of the identified "good" permeators [10] | further results
1 | CC(C)Nc1cccnc1N1CCN(C(=O)c2cc3cc(NS(C)(=O)=O)ccc3[nH]2)CC1 [Delavirdine] | > 1000 | > 1000 | > 1000 | > 1000 µM | equally affected by inactivation of efflux and hyperporination | – | – | – | – | – | – | – | – | – | – | – | – | – | – | – | effect of efflux inactivation and hyperporination on accumulation ([5]; radioactively labeled compound, four strains, 20 min, listed as [^3H]-delavirdine): Hyperporination had the strongest effect
2 | O=C1Nc2ccc(Cl)cc2[C@@](C#CC2CC2)(C(F)(F)F)O1 [Efavirenz] | > 1000 | > 1000 | > 1000 | 25 µM and 7.89 µg/mL | – | – | – | – | – | – | – | – | – | – | – | – | – | – | – | – | MIC ([4]; PΔ3-Pore cells): 25000 µM (≈ 7890 µg/mL); effect of efflux inactivation and hyperporination on accumulation ([5]; not told): Hyperporination had the strongest effect
3 | COCCc1ccc(OCC(O)CNC(C)C)cc1 (centres unmarked) [Metoprolol] | > 1000 | > 1000 | > 1000 | > 1000 µM | not affected by either of the two barriers | – | – | – | – | – | – | – | – | – | – | – | – | – | – | – | –
4 | NC(=O)Cc1cccc(C(=O)c2ccccc2)c1N [Nepafenac] | – | > 1000 | > 1000 | > 1000 µM | Hyperporination had the strongest effect | – | – | – | – | – | – | – | – | – | – | – | – | – | – | – | MIC ([1]; PAO1): > 1000 µM
5 | CCn1cc(C(=O)O)c(=O)c2cc(F)c(N3CCNC(C)C3)c(F)c21 (centres unmarked) [OU-0000616, LOMEFLOXACIN] | – | – | – | – | – | 2.5 µM (≈ 0.878 µg/mL) | 1.56 | 0.125 µM (≈ 0.0439 µg/mL) | 0.625 µM (≈ 0.22 µg/mL) | 0.125 µM (≈ 0.0439 µg/mL) | 0.024 | 3.37 | 2.56 | 2.85 | 10.46 | 2.91 | 6.86 | 3.95 | 8.65 | 4 | MICs ([1]; PAO1, LB broth, Table S2): 1.56
6 | C[C@@H]1CN(c2c(F)c(N)c3c(=O)c(C(=O)O)cn(C4CC4)c3c2F)C[C@H](C)N1 [OU-0000617, SPARFLOXACIN] | – | – | – | – | – | 2 µM and 0.8 µg/mL | 0.25 | 0.031 µM and 0.01 µg/mL | 0.5 µM and 0.2 µg/mL | 0.016 µM and 0.01 µg/mL | 0.0039 | 4.89 | 5.25 | 8.17 | 10.82 | 5.48 | 4.11 | 4.64 | 10.98 | 4 | –

From PMC9114115, “Property space mapping of Pseudomonas aeruginosa permeability to small molecules” (Scientific Reports, 2022)
